Laboratory results published in the supplement of paper PMC10307832.

How the values were obtained:
Assay in all cases: relative viability (nuclei count vs DMSO), 5 days (fraction); higher = more cells survive
XMD8-85 + Pemetrexed = compound: CN1CCN(CC1)C2=CC(=C(C=C2)NC3=NC=C4C(=N3)N(C5=CC=CC=C5C(=O)N4C)C)OC [XMD8-85] + Nc1nc2[nH]cc(CCc3ccc(C(=O)N[C@@H](CCC(=O)O)C(=O)O)cc3)c2c(=O)[nH]1 [Pemetrexed] (partner 0.2 µM)
Method in brief: (§1)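 Lung cancer cell lines were pin-tool dosed in 1536-well plates on the day after seeding, with either a lone drug or a fixed anchor-drug dose plus five library-drug doses (not always all listed) in √10 steps. Nuclei were counted on 4× images after 5 days. Relative viability is the ratio of treated-well to vehicle-well nuclei counts, with each value a median of duplicate plates.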

4EGI-1 + Decitabine = compound: O=C(O)C(Cc1ccccc1[N+](=O)[O-])=NNc1nc(-c2ccc(Cl)c(Cl)c2)cs1 (mixture of isomers) [4EGI-1] + Nc1ncn([C@H]2C[C@H](O)[C@@H](CO)O2)c(=O)n1 [Decitabine] (partner 2 µM)
Method in brief: as §1

XMD8-85 + Palbociclib = compound: CN1CCN(CC1)C2=CC(=C(C=C2)NC3=NC=C4C(=N3)N(C5=CC=CC=C5C(=O)N4C)C)OC [XMD8-85] + CC(=O)c1c(C)c2cnc(Nc3ccc(N4CCNCC4)cn3)nc2n(C2CCCC2)c1=O [Palbociclib] (partner 0.5 µM)
Method in brief: as §1

4EGI-1 + Alpelisib = compound: O=C(O)C(Cc1ccccc1[N+](=O)[O-])=NNc1nc(-c2ccc(Cl)c(Cl)c2)cs1 (mixture of isomers) [4EGI-1] + Cc1nc(NC(=O)N2CCC[C@H]2C(N)=O)sc1-c1ccnc(C(C)(C)C(F)(F)F)c1 [Alpelisib] (partner 2 µM)
Method in brief: as §1

Cell Line | relative viability (XMD8-85 + Pemetrexed; first compound 0.08 µM) | relative viability (XMD8-85 + Pemetrexed; first compound 0.253 µM) | relative viability (XMD8-85 + Pemetrexed; first compound 0.8 µM) | relative viability (XMD8-85 + Pemetrexed; first compound 2.53 µM) | relative viability (XMD8-85 + Pemetrexed; first compound 8 µM) | relative viability (4EGI-1 + Decitabine; first compound 0.5 µM) | relative viability (4EGI-1 + Decitabine; first compound 1.581 µM) | relative viability (4EGI-1 + Decitabine; first compound 5 µM) | relative viability (4EGI-1 + Decitabine; first compound 15.81 µM) | relative viability (4EGI-1 + Decitabine; first compound 50 µM) | relative viability (XMD8-85 + Palbociclib; first compound 0.08 µM) | relative viability (XMD8-85 + Palbociclib; first compound 0.253 µM) | relative viability (XMD8-85 + Palbociclib; first compound 0.8 µM) | relative viability (XMD8-85 + Palbociclib; first compound 2.53 µM) | relative viability (XMD8-85 + Palbociclib; first compound 8 µM) | relative viability (4EGI-1 + Alpelisib; first compound 0.5 µM) | relative viability (4EGI-1 + Alpelisib; first compound 1.581 µM) | relative viability (4EGI-1 + Alpelisib; first compound 5 µM) | relative viability (4EGI-1 + Alpelisib; first compound 15.81 µM) | relative viability (4EGI-1 + Alpelisib; first compound 50 µM)
201T | 0.329 | 0.329 | 0.368 | 0.325 | 0.288 | 0.871 | 0.859 | 0.886 | 0.826 | 0.615 | 0.342 | 0.321 | 0.36 | 0.34 | 0.325 | 1.03 | 0.997 | 1.09 | 1.03 | 0.97
A549 |  |  |  |  |  | 0.345 | 0.377 | 0.259 | 0.177 | 0.0347 |  |  |  |  |  | 0.801 | 0.479 | 0.984 | 0.611 | 0.273
A-427 | 1.09 | 1.02 | 1.08 | 1.1 | 0.754 | 0.575 |  | 0.592 | 0.513 | 0.336 | 0.521 | 0.544 | 0.571 | 0.52 | 0.463 | 1.04 | 0.968 | 1.07 | 0.991 | 0.759
ABC-1 |  |  |  |  |  | 1.28 |  | 1.12 | 1.23 | 0.482 | 0.468 | 0.598 | 0.781 | 0.689 |  | 1.07 | 1.03 | 1.02 | 0.74 | 0.405
BEN | 0.811 | 0.771 | 0.696 | 0.735 | 0.474 | 0.758 | 0.635 | 0.78 | 0.578 | 0.522 | 0.466 | 0.449 | 0.475 | 0.446 | 0.463 | 1.05 | 1.17 | 1.11 | 1.07 | 0.915
CAL-12T | 0.956 | 1.15 |  | 0.862 | 0.681 |  |  |  |  |  | 0.308 | 0.499 |  | 0.474 | 0.196 | 1.24 |  | 1.28 | 1.25 | 1.15
COR-L23 | 0.187 | 0.2 | 0.199 | 0.187 | 0.18 | 0.473 | 0.343 | 0.474 | 0.291 | 0.171 | 0.269 | 0.234 | 0.269 | 0.294 | 0.238 | 0.873 | 0.509 | 0.885 | 0.562 | 0.112
COR-L 105 | 1.01 | 1.16 | 1.21 | 0.816 | 0.58 | 0.681 | 0.558 | 0.587 | 0.472 | 0.523 | 0.421 | 0.423 | 0.368 | 0.382 | 0.409 | 1.2 | 0.818 | 1.04 | 0.89 | 0.599
Calu-6 |  |  |  |  |  |  |  |  |  |  |  |  |  |  |  | 1.08 | 0.493 | 1.21 | 0.933 | 0.375
ChaGo-K-1 | 0.276 | 0.268 | 0.26 | 0.248 | 0.232 | 0.538 | 0.511 | 0.523 | 0.479 | 0.352 | 0.99 | 0.965 | 0.963 | 0.931 | 0.899 |  |  |  |  | 
EBC-1 |  |  |  |  |  |  |  |  |  |  |  |  |  |  |  | 0.947 | 0.876 | 1.08 | 0.477 | 0.273
EKVX | 0.276 | 0.347 | 0.382 |  | 0.381 | 0.386 |  | 0.371 | 0.276 | 0.319 | 0.285 | 0.369 | 0.446 | 0.487 | 0.372 | 1.12 | 0.85 | 0.971 | 0.648 | 0.826
EMC-BAC-2 | 0.391 | 0.423 | 0.45 | 0.411 | 0.376 | 1.21 |  | 0.972 | 0.904 | 0.436 | 0.494 | 0.495 | 0.504 | 0.473 | 0.458 | 0.733 | 0.628 | 0.72 | 0.485 | 0.656
EPLC-272H | 0.279 | 0.318 | 0.314 | 0.223 | 0.36 | 0.45 |  | 0.359 | 0.31 | 0.305 | 0.284 | 0.317 | 0.312 | 0.306 | 0.303 | 0.98 | 0.868 | 0.905 | 0.911 | 0.873
H3255 | 0.558 |  | 0.525 | 0.599 | 0.375 | 0.684 |  | 0.638 |  | 0.594 | 0.33 | 0.323 | 0.285 | 0.273 | 0.26 | 0.861 | 0.641 | 0.756 | 0.473 | 0.561
HARA | 0.26 | 0.227 | 0.307 | 0.295 | 0.229 | 0.446 | 0.511 | 0.692 | 0.366 | 0.167 | 0.278 | 0.287 | 0.279 | 0.247 | 0.195 | 0.935 | 0.921 | 0.837 | 0.833 | 0.295
HCC-15 | 0.202 | 0.216 | 0.212 | 0.207 | 0.187 | 0.89 | 0.723 | 0.675 | 0.527 | 0.217 | 0.728 | 0.705 | 0.751 | 0.708 | 0.619 | 0.923 | 0.886 | 0.968 | 0.809 | 0.519
HCC-44 | 0.65 | 0.701 | 0.647 | 0.597 | 0.632 | 0.964 | 0.905 | 0.936 | 0.924 | 0.432 | 0.993 | 1.06 | 1.08 | 0.993 | 0.946 | 0.86 | 0.485 | 0.79 | 0.532 | 0.182
HCC-78 | 0.915 | 0.892 | 0.906 | 0.95 | 0.855 | 0.768 |  | 0.729 | 0.621 | 0.725 | 0.544 | 0.459 | 0.564 | 0.503 | 0.435 | 0.439 | 0.315 | 0.319 | 0.32 | 0.218
